The test system of assay [1] is Dox dependent porcine iPSCs. As to the kind of experiment: Screening for the porcine EPSC culture conditions. The conditions noted are these: 1.0 μM, irrespective of whether Dox was present. It counts as cell-based. On the procedure:
Dox dependent porcine iPSCs were dissociated in 0.25% trypsin/EDTA solution (Gibco, Cat. No. 25500-054) and seeded in 24-well STO feeder plates at a density of 1×10^4 cells per well. The cells were cultured in M15 supplemented with Dox (Sigma, Cat. No. D9891), Vitamin C (Sigma, Cat. No. 49752-100G) and 10 ng/ml bFGF (SCI) for two days before the culture media was switched to medium supplemented with indicated small molecules and cytokines (Supplementary Table 1). M15 and N2B27 media: see above. AlbumMax media: DMEM/F12 (Gibco, Cat. No. 21331-020), 20% AlbumMax II (Gibco, Cat. No. 11021-037), […] Human Insulin (Sigma, Cat. No. 91077C), 2×B27 Supplement, […] IGFII (R&D, Cat. No. 292-G2-250), 1×Glutamine Penicillin-Streptomycin (Thermo Fisher Scientific, Cat. No. 11140-050), 1×NEAA (Thermo Fisher Scientific, Cat. No. 10378-016) and 0.1 mM 2mercaptoethanol (Sigma, Cat. No. M6250). 20% KSR media: DMEM/F-12 (Gibco, Cat. No. 21331-020), 20% KnockOut Serum Replacement (KSR) (Gibco, Cat. No. 10828-028), 1× glutamine penicillin-streptomycin (Thermo Fisher Scientific, Cat. No. 11140-050), 1×NEAA (Thermo Fisher Scientific, Cat. No. 10378-016) and 0.1 mM 2-mercaptoethanol (Sigma, Cat. No. M6250). […]

For assay [2], the system named is human ES cell (hESC) lines (H1, H9, M1, M10). In words: Culture of human ES cell lines in pEPSCM minus ACTIVIN A (colony formation). It counts as cell-based. The following applies: removing ACTIVIN A (20 ng/ml) from pEPSCM. The text has this:
Human ESCs have been widely used in studying human embryo development in vitro and hold great potential for regenerative medicine. The finding that inhibition of SRC and Tankyrases is sufficient to convert mouse ESCs to mEPSCs and that these two inhibitors are required for the generation of pEPSCs raises the possibility that similar in vitro culture conditions may also work for other mammalian species. To explore this possibility, four established human ES cell (hESC) lines (H1, H9, Man1 or M1, and Man10 or M10 cells) are cultured in pEPSCM and passaged them up to three times. […] Removing ACTIVIN A (20 ng/ml) from pEPSCM led to considerably fewer cell colonies formed from H1 (<1.0%) and M1 (5.0%) ESC cultures, while none from H9 or M10 (Extended Data FIG. 7a), which is consistent with the inherent between-line heterogeneity of human ESCs. With further refinement of the culture conditions (for example, replacing WH-4-023 with another SRC inhibitor A419259 in hEPSCM, see Methods), morphologically homogenous and stable cell lines were established from single-cell sub-cloned H1 (H1-EPSCs) and M1 cells (M1-EPSCs) (FIG. 3a).

A value given as a limit tells only on which side of the number the result lay.

With `O=C(NOC[C@H](O)CO)c1ccc(F)c(F)c1Nc1ccc(I)cc1F` [PD0325901], the “survival of porcine iPSCs / porcine cells in the screens” value is “deleterious to porcine cells” in assay [1] and “rapidly lost” in assay [1] (listed as PD-0325901).
In the case of “ACTIVIN A: Human Recombinant ACTIVIN A cytokine”, the cell colonies formed was under 1.0% in assay [2] (H1 ESC culture), “none” in assay [2] (H9), 5.0% in assay [2] (M1 ESC culture) and “none” in assay [2] (M10).
